We go through 74 compounds from PubChem BioAssay AID179 (DTP/NCI, 2004).

The test system of this test is CEM cells HIV-1 protection, formazan growth assay. Briefly: NCI AIDS Antiviral Assay. The note with it: for IC50: measured here: growth of uninfected CEM cells. In a few lines: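 Human CEM cells, uninfected and HIV-1-infected, received five drug concentrations, and growth was read by soluble formazan assay. Compounds giving at least 50% protection were retested; reproducible 100% protection defined confirmed active.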

SMILES strings stand for the structures. Calls of active or inactive are those of the source.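 How the source made its calls: active means compounds giving half or more protection of infected cells from virus-caused growth loss, again on retest; inactive means the rest.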

Take `CCCCC(C(=O)NCCNC(=O)CCC(=O)N(C)O)C(=O)NCCNC(=O)CCC(=O)N(C)O`: the EC50 was > 200 µM and the IC50 amounted to 112 µM.
The corresponding values for `O=C(O)CC[C@@]1(C(=O)O)NC(C(=O)O)Cc2[nH]cnc21` (stereo partly drawn) are > 437 µM and > 437 µM.
Consider `O=C1C=C(C23CC4CC(CC(C4)C2)C3)Nc2ccccc2N1`, for which the EC50 was > 200 µM.
Consider `Cc1ccc(-n2cc(-c3ccc(Cl)cc3)c3c(NN)ncnc32)cc1`, for which the EC50 is > 200 µM and the IC50 was 3.72 µM.
As for `O=C1C(Br)=C(c2ccccc2)C(c2ccccc2)=C1c1ccccc1`, the outcome was inactive.
Consider `CCOC(=O)c1ccc(-c2onc(C)c2Br)[nH]1`, for which the EC50 was > 200 µM and the IC50 turned out to be 39.8 µM.
The corresponding values for `COc1cc(CO)c(-c2c(CO)cc(OC)c(OC)c2OC)c(OC)c1OC` are > 631 µM and > 631 µM.
Regarding `O=c1c2cc3c(=O)n(CCc4ccccc4CO)c(=O)c3cc2c(=O)n1CCc1ccccc1CO`, the EC50 is > 10.7 µM and the IC50 was > 10.7 µM.
Consider `COc1nc(NC2OC(COC(C)=O)C(OC(C)=O)C(OC(C)=O)C2OC(C)=O)c(C(=O)CCl)c(=O)n1C` (stereo not drawn), for which the result was inactive.
For `COC(=O)C1=C2Nc3ccccc3[C@@]23CCN(Cc2ccccc2)[C@H]3CC1[C@H](O)CO` (stereo partly drawn), the EC50 is > 148 µM and the IC50 is 83.2 µM.
The corresponding values for `O=C(Nc1cc(Cl)c(Cl)cc1Cl)C(=O)C(C(=O)c1ccc2ccccc2c1)C1OC(=O)c2ccccc21` (stereo not drawn) are > 64.6 µM and 31.6 µM.
Turning to `COc1ccc2c(=O)c(-c3cc4c(cc3OC)OCO4)coc2c1`, the EC50 is > 200 µM and the IC50 was > 200 µM.
In the case of `COc1ccc2c(c1)C1c3ccccc3CCN1CCC2` (stereo not drawn), the EC50 was > 200 µM and the IC50 came out at 79.4 µM.
On the same counts, the results for `CC1CCc2c(c(CC3CC(=O)NC(=O)C3)nn2-c2ccccc2)C1` (stereo not drawn) are > 200 µM and > 200 µM.
For `COC(=O)C1CC=C(SC(=O)c2ccccc2)N1C(=O)c1ccccc1` (stereo not drawn), the EC50 is > 200 µM and the 50% inhibitory concentration (IC50) was > 200 µM.
With `C=C1C(=O)OC2C=CCCCC12` (stereo not drawn), the EC50 is > 53.7 µM and the IC50 was 4.68 µM.
Take `Nc1ccc(S(=O)(=O)C(=O)O)cc1`: the EC50 is > 1230 µM and the IC50 is > 1230 µM.
Consider `CC1(c2ccc[n+](Cc3ccccc3)c2)OCCO1`, for which the EC50 is > 398 µM and the IC50 turned out to be 380 µM.
On to `O=C(c1ccco1)N(C(=O)N1CCCCC1)c1ccccc1`, for which the EC50 is > 200 µM and the IC50 is > 200 µM.
With `CC1(O)CCC2(C)C(=O)C1(C)CCC21OCCO1` (stereo not drawn), the result was inactive.
Regarding `O=C1/C(=C\c2ccc([N+](=O)[O-])cc2)CS(=O)(=O)C/C1=C/c1ccc([N+](=O)[O-])cc1`, the EC50 was > 0.2 µM and the IC50 was 0.0309 µM.
`NC(=O)CNC(=O)c1ccc(NC(=O)c2ccccc2SC(=O)CCCC[n+]2ccccc2)cc1`: the half-maximal effective concentration (EC50) is 15.8 µM and the IC50 came out at 50.1 µM.
The corresponding values for `CC(=O)Nc1nc(Cl)c2ncn(C3CCCO3)c2n1` (stereo not drawn) are > 200 µM and 22.4 µM.
For `c1cc[c]([Sn]([S]c2cccc3cccnc23)([c]2ccccc2)[c]2ccccc2)cc1`, the result was inactive.
Turning to `OC[C@@H]1C2CCC([C@@H]1CO)C2(Cc1ccccc1)Cc1ccccc1`, the EC50 is > 89.1 µM and the IC50 is > 89.1 µM.
As for `CC1(C)C2CC(c3ccncc3)ON2C(C)(C)N1O` (stereo not drawn), the EC50 was > 200 µM and the IC50 is > 200 µM.
With `Cc1cc(C2(c3cc(C)c(O)cc3C)OS(=O)(=O)c3ccccc32)c(C)cc1O`, the outcome was inactive.
`C#Cc1c(C)c(/C=C/C(C)=C/C=C/C(C)=C/C(=O)OC)n(C)c1C`: the EC50 was > 22.4 µM and the IC50 was > 22.4 µM.
As to `CC1(C)C=C(/C=N/Nc2ccccc2)C(C#N)=C(O)C1(C#N)C#N`, the EC50 is > 200 µM and the IC50 turned out to be 23.4 µM.
On the same counts, the results for `CC(=O)NC1C(OCc2ccccc2)OC(COC(=O)CCCCCCCCCCNC(=O)c2cccc3c(=O)c4ccccc4[nH]c23)C(O)C1OC(C)C(=O)NC(C)C(=O)NC(CCC(N)=O)C(N)=O` (stereo not drawn) are > 7.41 µM and > 7.41 µM.
`S=c1cn[nH]c2ccccc12`: the EC50 is > 661 µM and the half-maximal inhibitory concentration (IC50) is 170 µM.
In the case of `NC(=O)NC(=O)c1cccs1`, the EC50 was > 200 µM and the IC50 is > 200 µM.
For the compound `O=C1c2cc(Cc3ccccc3)c(=O)c(Cc3ccccc3)cc2C(=O)c2cc(Cc3ccccc3)c(=O)c(Cc3ccccc3)cc21`, the EC50 is > 200 µM and the IC50 was > 200 µM.
Regarding `CC1=COC(=O)c2ccccc2N1`, the EC50 was > 537 µM and the IC50 was determined as 141 µM.
The corresponding values for `O=C1NCC(c2ccccc2)(c2ccccc2)O1` are > 200 µM and 151 µM.
Regarding `O=C1OC(=O)C(=C\c2ccc3c(c2)OCO3)/C1=C/c1ccc2c(c1)OCO2`, the outcome was inactive.
Consider `O=C1OC(c2ccccc2)N/C1=C\c1ccc2c(c1)OCO2` (stereo not drawn), for which the EC50 was > 200 µM and the IC50 amounted to 69.2 µM.
In the case of `CCCCCCCCCCCCN(O)C(=O)c1ccccc1`, the EC50 was > 17 µM and the IC50 is > 17 µM.
Regarding `O=C(O)c1ccc(CSc2ccc(Cl)cc2)c([N+](=O)[O-])c1`, the EC50 was > 209 µM and the IC50 turned out to be 95.5 µM.
`CC1C(=O)CC2OC3CC(C)(Cl)C(Br)CC31C2(C)C` (stereo not drawn): the outcome was inactive.
With `Cc1ccc([Si](O)(c2ccc(C)cc2)c2ccc(C)cc2)cc1`, the EC50 is > 200 µM and the IC50 worked out at 12 µM.
On the same counts, the results for `Cc1cc(=O)oc2cc(O)cc(O)c12` are > 1290 µM and 166 µM.
For the compound `CCOC(=O)CC(C#N)(CC(=O)OCC)C(=O)OCC`, the result was inactive.
Turning to `CC(C)OP(=O)(Cc1cc(C(C)(C)C)c(O)c(C(C)(C)C)c1)OC(C)C`, the EC50 was > 67.6 µM and the IC50 is > 67.6 µM.
As for `CC1CCC(C(C)C)C(OC2(c3ccccc3)OC(=O)c3ccccc32)C1` (stereo not drawn), the outcome was inactive.
Take `COc1cc2cc3c4c(cc(OC)c(OC)c4c2cc1OC)CCN3C(=O)CCC(=O)O`: the EC50 is > 200 µM and the IC50 was found to be 123 µM.
The corresponding values for `CCNC(C)(C)C(SSSC(c1ccc(Cl)cc1)C(C)(C)NCC)c1ccc(Cl)cc1` (stereo not drawn) are > 200 µM and 9.12 µM.
With `CCOP(=O)(OCC)/C(C#N)=C/c1cccn1Cc1ccccc1`, the EC50 is > 200 µM and the IC50 is 25.1 µM.
On the same counts, the results for `Cc1nc2ccc(C(F)(F)F)cc2nc1Nc1ccc(Cl)c(Cl)c1` are > 17.8 µM and 11.5 µM.
For the compound `O=c1ccn2n1CCCCC2`, the EC50 is > 200 µM and the IC50 is > 200 µM.
As for `C=C(CCC(Cl)C(COS(=O)(=O)c1ccc(C)cc1)OC(CCCO[Si](c1ccccc1)(c1ccccc1)C(C)(C)C)OCC)[Si](C)(C)C` (stereo not drawn), the EC50 is > 5.01 µM and the IC50 was > 5.01 µM.
Consider `CCOC(=O)C1(C#N)C(C#N)(C#N)C1(CC)CC` (stereo not drawn), for which the EC50 is > 200 µM and the IC50 was found to be 66.1 µM.
The corresponding values for `COc1ccc(C2=C(OC(=O)N(C)C)c3cccn3-c3cc(Cl)ccc3S2)cc1` are > 100 µM and 87.1 µM.
As for `CC(=O)OC1COC(c2ccccc2)OC1C1OC(c2ccccc2)OCC1OC(C)=O` (stereo not drawn), the EC50 was > 200 µM and the IC50 was > 200 µM.
Regarding `O=c1ccn(C2CCC3(CO)CC23)c(=O)[nH]1` (stereo not drawn), the EC50 was > 50.1 µM and the IC50 was > 50.1 µM.
Regarding `OC1c2ccccc2C(O)c2c1ccc1c2CN(Cc2ccccc2)CC1` (stereo not drawn), the EC50 was > 72.4 µM and the IC50 was 12.6 µM.
Take `Nc1nc2c(ncn2C2C=CC(CO)C2)c(=O)[nH]1` (stereo not drawn): the EC50 is 36.3 µM and the 50% inhibitory concentration (IC50) stood at 324 µM.
For `CN(C)CCCCN1c2ccccc2Sc2ccc(C(=O)c3ccccc3)cc21`, the EC50 was > 200 µM and the IC50 worked out at 6.61 µM.
`O=C(CC(O)c1cccnc1)CC(O)c1cccnc1` (stereo not drawn): the EC50 was > 200 µM and the IC50 stood at 2.82 µM.
On the same counts, the results for `ClCc1ccc2ccc3ccc(CCl)nc3c2n1` are > 200 µM and 1.51 µM.
For `CC(C)(C[NH-])C[NH-].[Cl][Pt+2][Cl]`, the EC50 is > 676 µM and the IC50 was found to be 2.04 µM.
The corresponding values for `Cc1c(O)c2cccc(-c3ccccc3)c2oc1=O` are > 200 µM and 132 µM.
As for `CN(C)c1ccc(/C=C/C(=O)C(C)(C)C)cc1Br`, the EC50 is > 32.4 µM and the IC50 is 21.4 µM.
In the case of `COc1cc(/C=C2/CCCc3ccccc3C2=O)cc(OC)c1OC`, the EC50 is > 200 µM and the IC50 was found to be 11.7 µM.
On the same counts, the results for `CCOC(=O)/C(=C/c1cccc(Cl)c1)N(CC)CC` are > 91.2 µM and > 91.2 µM.
With `Cc1cc2ncn(-c3nc4ccccc4nc3C(C#N)S(C)(=O)=O)c2cc1C` (stereo not drawn), the EC50 is > 646 µM and the IC50 came out at 57.5 µM.
On the same counts, the results for `COc1ccc(-c2cc(=O)c3c(O)cc(O)cc3o2)cc1Oc1ccc(-c2cc(=O)c3c(O)cc(O)cc3o2)cc1` are > 200 µM and 2.69 µM.
The corresponding values for `NC(=O)N/N=C1/C2CC3CC(C2)C1C3` (stereo not drawn) are > 200 µM and > 200 µM.
As for `O=C(O)c1ccccc1C(=O)NC(Cc1ccccc1)(C(=O)O)C(=O)O`, the EC50 was > 200 µM and the IC50 was > 200 µM.
For the compound `C=C1C(=O)O[C@H]2C[C@@]3(COC(C)=O)C=COC=C(COC(=O)C(C)C)C3CC12` (stereo partly drawn), the EC50 was > 200 µM and the IC50 turned out to be 30.9 µM.
On the same counts, the results for `CC(C)c1ccc(C(=O)c2ccccc2C(=O)O)cc1` are > 200 µM and > 200 µM.
`Cc1cccc2c(=O)c3c(O)cc4c(c3n(C)c12)C=CC(C)(C)O4`: the EC50 is > 200 µM and the IC50 is 14.8 µM.
With `CC(C)NC(=O)OCCN=C1c2ccccc2CCc2ccccc21`, the EC50 was > 200 µM and the IC50 came to 27.5 µM.
For the compound `CCOC(=O)NNC(=O)C1CSC(c2ccccc2)N1C(C)=O` (stereo not drawn), the EC50 was > 200 µM and the IC50 is > 200 µM.
